Reference: patent US10472663B2, “Procedure for the rapid determination of bacterial susceptibility to antibiotics that inhibit protein synthesis” (ABM TECHNOLOGIES, LLC, priority 2015, dated 2019)

Columns and labels:
Assay type in all cases: cell-based
Escherichia coli [1] = assay: Micromax assay of ciprofloxacin-induced DNA fragmentation after a protein synthesis inhibitor (Example 1)
Protocol: As an exemplification of the principals previously described, two strains of Escherichia coli exponentially growing in Mueller-Hinton broth were assayed (FIGS. 1-6). The first strain of Escherichia coli was a TG1 strain susceptible to both the aminoglycoside tobramycin (an inhibitor of protein synthesis) and the quinolone ciprofloxacin (an agent which induces DNA fragmentation by trapping of topoisomerases in DNA) (FIGS. 1-3). The second strain was a clinical isolate resistant to tobramycin and susceptible to ciprofloxacin (FIGS. 4-6). Four treatments were applied to each strain to rapidly distinguish the susceptible and the resistant strain to tobramycin.
One portion of both bacterial strains was incubated with tobramycin at 4 μg/ml for 40 minutes (FIGS. 1 and 4), a dosage indicated by the CLSI as the breakpoint of susceptibility to tobramycin in the standard antibiogram based on microdilution. Another portion of both strains was incubated with ciprofloxacin at 1 μg/ml for 30 min (FIGS. 2 and 5). Still another portion of both strains was incubated with tobramycin at 4 μg/ml for 10 min followed by ciprofloxacin at 1 μg/ml for 30 min, without removing the tobramycin (FIGS. 3 and 6). A final portion was left with no antibiotic.
After each incubation cells were processed using the variant of the Micromax technology to visualize the nucleoids, i.e. bacterial chromosomal DNA, in all the cells of the population. Cells from each culture were immersed in an agarose microgel on a slide and incubated with a specific lysing solution to remove the cell wall in all the cells and release in the microgel the nucleoids contained inside the bacteria. These are dried, stained with a high sensitive fluorochrome for DNA like SYBR Gold and visualized under fluorescence microscopy. FIGS. 1-6 depicts representative images captured under each of the conditions described below.
The above described methodology was employed to rapidly determine the susceptibility of 12 strains of E. coli to tobramycin. One portion of each bacterial strain was incubated with tobramycin at the susceptibility breakpoint dosage, 4 μg/ml, for 40 min. A portion of each strain was incubated with ciprofloxacin at 1 μg/ml for 30 min. Still another portion of each strain was incubated with tobramycin at 4 μg/ml for 10 min followed by ciprofloxacin at 1 μg/ml for 30 min, without removing the tobramycin. A final portion of each strain was left with no antibiotic. E. coli strains were identified as susceptible or not based on the levels of DNA fragmentation in the portion of each strain incubated with ciprofloxacin and the portion incubated with tobramycin and ciprofloxacin.
The principals exemplified in Example 1 were confirmed with the aminoglycoside amikacin. Briefly, a susceptible and resistant strain of E. coli were exposed to similar conditions to those described in Example 1, except that amikacin was utilized as the protein synthesis inhibiting antibiotic. Specifically, each was strain subjected to four treatments. One portion received no antibiotics, and another portion received only a quinolone, such as ciprofloxacin or norfloxacin to induce DNA fragmentation. Still another portion received the protein synthesis inhibiting antibiotic aminoglycoside amikacin, followed by the quinolone. Another portion received only amikacin. A final portion received neither antibiotic.
The principals exemplified in Example 1 were further confirmed with the aminoglycoside gentamicin. Briefly, the rapid test was performed on 15 isolated E. coli strains according to the methodology described above, except that gentamicinin was utilized as the protein synthesis inhibiting antibiotic. Suppressed DNA fragmentation were used to characterize bacterial susceptibility and those characterizations were verified with the standard antibiogram for gentamicin by microdilution. […]

Pseudomonas aeruginosa [2] = assay: Variant Micromax assay of cell enlargement by ceftazidime after tobramycin (Example 7); conditions: ceftazidime alone 0.5 μg/ml 60 minutes; both strains
Protocol: As an example, two strains of Pseudomonas aeruginosa exponentially growing in Mueller-Hinton broth were assayed. These strains were both susceptible to the β-lactam ceftazidime, which inhibits peptidoglycan synthesis. One strain was susceptible and the other resistant to the aminoglycoside tobramycin (an inhibitor of protein synthesis). For the purpose of rapidly distinguishing the susceptible and the resistant strain to tobramycin each strain was subjected to four treatments.
A portion of each strain was incubated with tobramycin at 4 μg/ml (the CLSI breakpoint of susceptibility) for 75 minutes. An assay of this portion is depicted at FIGS. 31 and 34. Another portion of each strain was incubated with ceftazidime at 0.5 μg/ml for 60 minutes. An assay of this portion is depicted at FIGS. 32 and 35. Still another portion of both strains was incubated with tobramycin at 4 μg/ml for 15 minutes followed by ceftazidime at 0.5 μg/ml for 60 minutes, without removing the tobramycin. Assays of these strains can be seen at FIGS. 33 and 36, respectively. A final portion of each strain was not treated with either antibiotic.
After incubation with the antibiotics, cells were processed using a variant Micromax technology to visualize the enlargement or not of the bacteria. Samples from each culture were immersed in an agarose microgel on a slide, dried, stained with a high sensitive fluorochrome for DNA like SYBR Gold and visualized under fluorescence microscopy to visualize cell shape and size.

Enterococcus faecalis = assay: Variant Micromax assay of cell lysis by lysozyme after erythromycin (Example 6)
Protocol: As an example, two strains of Enterococcus faecalis exponentially growing in Mueller-Hinton broth were incubated under four different conditions and then assayed. […] Each strain was subjected to four treatments for the purpose of rapidly distinguishing the susceptible and the resistant strain to erythromycin.
The dose was that indicated by the CLSI as the breakpoint of susceptibility to erythromycin in the standard antibiogram based on microdilution. Another portion of both strains was incubated with lysozyme 1 mg/ml, 10 min at 37° C. […]
(§1) After incubation with lysozyme, the cells were processed using a variant of the Micromax technology to visualize the nucleoids, i.e. spreading of the bacterial chromosomal DNA, in all the cells of the population. Samples from the cultures were immersed in an agarose microgel on a slide and incubated with a specific lysing solution to remove the cell wall in all the cells and release in the microgel the nucleoids contained inside the bacteria. These are dried, stained with a highly sensitive fluorochrome for DNA like SYBR Gold and visualized under fluorescence microscopy.

Pseudomonas aeruginosa [3] = assay: Variant Micromax assay of cell wall damage by meropenem after tobramycin (Example 5); conditions: meropenem alone 0.2 μg/ml 60 min; both strains
From the text: As an exemplification of this principal, FIGS. 19-24 illustrates assays of two strains of Pseudomonas aeruginosa exponentially growing in Mueller-Hinton broth. Both strains were both susceptible to the β-lactam meropenem, which inhibits peptidoglycan synthesis. One strain was susceptible (FIGS. 19-21) and the other resistant (FIGS. 22-24) to the aminoglycoside tobramycin (inhibitor of protein synthesis).
For the purpose of rapidly distinguishing susceptible and resistant (i.e. non-susceptible) strains to tobramycin each strain was subjected to four treatments. A portion of each strain was incubated with tobramycin at 4 μg/ml for 75 min (FIGS. 19 and 22). The dose utilized, was indicated by the CLSI as the breakpoint of susceptibility to tobramycin. FIGS. 20 and 23 illustrate an assay from another portion of each strain, which was incubated with Meropenem at 0.2 μg/ml for 60 min. FIGS. 21 and 24, illustrate assays from still another portion of both strains which was incubated with tobramycin at 4 μg/ml for 15 min followed by meropenem at 0.2 μg/ml for 60 min, without removing the tobramycin. Still another portion of both strains was maintained without the addition of either antibiotic.
After incubation cells were processed using a variant Micromax technology to visualize the affectation or not of the cell wall based on the release or not of the nucleoids contained inside the bacteria. In the same manner described previously, samples from cells from the culture are immersed in an agarose microgel on a slide and incubated with a specific lysing solution that removes the cell wall only in those bacteria whose peptidoglycan was affected, thus releasing in the microgel the nucleoids contained inside. […] The processed bacteria in microgel are dried, stained with a high sensitive fluorochrome for DNA like SYBR Gold and visualized under fluorescence microscopy.

Escherichia coli [4] = assay: Variant Micromax assay of cell enlargement by low-dose mitomycin C after tobramycin (Example 8); conditions: mitomycin C alone 0.5 μg/ml 60 minutes; both strains
Protocol: As an example, two strains of Escherichia coli exponentially growing in Mueller-Hinton broth were incubated under four different conditions and then assayed. One strain was susceptible and the other resistant to the aminoglycoside tobramycin (an inhibitor of protein synthesis). For the purpose of rapidly distinguishing susceptible and non-susceptible strains to tobramycin each strain was incubated under four conditions.
A portion of each strain was incubated with tobramycin at 4 μg/ml for 90 minutes. As described previously, this dose is indicated by the CLSI as the breakpoint of susceptibility to tobramycin in the standard antibiogram based on microdilution. Another portion of both strains was incubated in Mitomycin C at 0.5 μg/ml for 60 minutes. Still another portion of each strain was incubated with tobramycin at 4 μg/ml for 30 minutes followed by mitomycin C at 0.5 μg/ml for 60 minutes, without removing the tobramycin. A final portion of both strains was not incubated with either antibiotic.
After the incubation, cells were processed using a variant Micromax technology to visualize any enlargement or not of the bacteria. Samples from cells from the culture were immersed in an agarose microgel on a slide, dried, stained with a highly sensitive fluorochrome for DNA like SYBR Gold and visualized under fluorescence microscopy to visualize cell shape and size. Images were similar those correspondent to the previous figure.

Escherichia coli [5] = assay: Micromax assay of mitomycin C-induced DNA fragmentation after tobramycin (Example 2); conditions: mitomycin C alone 50 μg/ml 60 min; both strains
Protocol: FIGS. 7-9 depict a TG1 strain susceptible to the aminoglycoside tobramycin, an inhibitor of protein synthesis, and mitomycin C, an agent which induces DNA damage. The other strain illustrated in FIGS. 10-12 was a clinical isolate resistant to tobramycin.
One portion of both bacterial strains was incubated with tobramycin at 4 μg/ml for 90 min (FIGS. 7 and 10), a dosage indicated by the CLSI as the breakpoint of susceptibility to tobramycin in the standard antibiogram based on microdilution. Another portion of both strains was incubated with mitomycin C at 50 μg/ml for 60 min (FIGS. 8 and 11). Still another portion of both strains was incubated with tobramycin at 4 μg/ml for 30 min followed by mitomycin C at 50 μg/ml for 60 min, without removing the tobramycin (FIGS. 9 and 12). A final portion was left with no antibiotic.
as §1, with “incubation,” for “incubation with lysozyme, the”, “visualize” for “visualize the”, “i.e.” for “i.e. spreading of the”, “from cells from” for “from”, “culture are” for “cultures were”, “microscopy, Nucleoids from E. coli obtained using the Micromax assay are represented in FIGS. 7-12, FIGS. 7-9 correspond to a strain susceptible to tobramycin (TG1) and FIGS. 10-12 to a strain resistant to tobramycin.” for “microscopy.”

Staphylococcus aureus = assay: Micromax assay of DNA fragmentation by DNase released with lysostaphin after azithromycin (Example 3); conditions: lysostaphin alone 10 μg/ml 1 min; both strains
Protocol: In an exemplification of this principal, two strains of S. aureus growing in Mueller-Hinton agar with 5% sheep blood were assayed. One strain was susceptible to the macrolide azithromycin (an inhibitor of protein synthesis) (FIGS. 13-15) and the other strain was a clinical isolate resistant to azithromycin (FIGS. 16-18). The purpose was to rapidly distinguish susceptible and non-susceptible strains to azithromycin. Cultures were processed direct from standard growing agar plates 18-24 h and it was not necessary the cells being exponentially growing previously to the assay.
Each of these strain was subjected to four treatments. One portion of both strains was incubated with azithromycin at 2 μg/ml for 120 min; 2 μg/ml being indicated by the CLSI as the breakpoint of susceptibility to azithromycin. The cells were then lysed to release nucleoids and images of FIGS. 13 and 16 were generated. Another portion of each strain was incubated with lysostaphin at 10 μg/ml for 1 min. FIGS. 14 and 17 depict the nucleoids released in each strain for this treatment. Still another portion was incubated with Azithromycin at 2 μg/ml for 120 min followed by lysostaphin at 10 μg/ml for 1 min, without removing the azithromycin. The assays for these treatments can be seen at FIGS. 15 and 18. A final portion was left without either antibiotic.
After the incubation, the cells were processed using the variant of a Micromax technology to lyse cells with affected cell walls. As indicated previously, samples from cells from the culture are immersed in an agarose microgel on a slide and incubated with a specific lysing solution to remove the cell wall in those cells affected by lysostaphin and release in the microgel the nucleoids contained inside the bacteria. These are dried, stained with a highly sensitive fluorochrome for DNA like SYBR Gold and visualized under fluorescence microscopy.

[6] = rapid test, confirmed by microdilution antibiogram, 12 strains for tobramycin, 15 for gentamicin

For NCC[C@H](O)C(=O)N[C@@H]1C[C@H](N)[C@@H](O[C@H]2O[C@H](CN)[C@@H](O)[C@H](O)[C@H]2O)[C@H](O)[C@H]1O[C@H]1O[C@H](CO)[C@@H](O)[C@H](N)[C@H]1O [amikacin], the “outcome of rapid susceptibility test with another protein synthesis inhibitor” value (Escherichia coli [1]; inhibitor followed by a quinolone, susceptible and resistant E. coli) was “successfully determined”.
CC(C)(O/N=C(\C(=O)N[C@@H]1C(=O)N2C(C(=O)[O-])=C(C[n+]3ccccc3)CS[C@H]12)c1csc(N)n1)C(=O)O [ceftazidime] was tested, and the cell enlargement (Pseudomonas aeruginosa [2]) was “significant cell enlargement”.
With O=C(O)c1cn(C2CC2)c2cc(N3CCNCC3)c(F)cc2c1=O [ciprofloxacin] the “inhibitory response on lysis by lysozyme” value (Enterococcus faecalis; incubation with quinolones instead of a protein synthesis inhibitor) was “has not been obtained” and the “DNA fragmentation of nucleoids” value (Escherichia coli [1]; ciprofloxacin alone 1 μg/ml 30 min, both strains) was “nucleoids with extensive fragmented DNA”.
In the case of C[C@@H](O)[C@H]1C(=O)N2C(C(=O)O)=C(S[C@@H]3CN[C@H](C(=O)N(C)C)C3)[C@H](C)[C@H]12 [meropenem], the “release of nucleoids (cell wall damage)” value (Pseudomonas aeruginosa [3]) is reported as “releasing of nucleoids due to affectation of the cell wall”.
CO[C@@]12[C@H](COC(N)=O)C3=C(C(=O)C(C)=C(N)C3=O)N1C[C@@H]1N[C@@H]12 [mitomycin C] was tested, and the cell enlargement (Escherichia coli [4]) was “significant cell enlargement” and the “DNA fragmentation of nucleoids” value (Escherichia coli [5]) was “nucleoids with fragmented DNA in both strains”.
With gentamicin the “E. coli strains identified as non-susceptible (resistant)” value (Escherichia coli [1]; [6]) was 5 and the “E. coli strains identified as susceptible” value (Escherichia coli [1]; [6]) was 10.
In the case of lysostaphin, the “DNA fragmentation of released nucleoids” value (Staphylococcus aureus) is reported as “release of nucleoids with a large extent of DNA fragmentation”.
With lysozyme the “partially lysed cells with spreading nucleoid fibers” value (Enterococcus faecalis; lysozyme 1 mg/ml 10 min at 37° C. and lysing solution, no erythromycin, erythromycin-resistant strain) was 97.36% and the “lysed cells releasing nucleoid fibers” value (Enterococcus faecalis; lysozyme 1 mg/ml 10 min at 37° C. and lysing solution, no erythromycin, erythromycin-susceptible strain) was 92.13%.
